The values below come from US11220693B2, “Method for converting monocot plant genome sequence in which nucleic acid base in targeted DNA sequence is specifically converted, and molecular complex used therein” (NATIONAL UNIVERSITY CORPORATION KOBE UNIVERSITY, priority 2015, dated 2022).

For test [1], the system named is rice (Oryza sativa. L Japonica brand; Nipponbare) seeds. The test can be described thus: Effective concentration of Imazamox on rice plant body under aseptic culture conditions (seed germination). The class given is in vivo. Here is the method: Based on 1/2 MS solid medium (MS mix (Sigma), sucrose 15.0 g/L, Gelrite (Wako Pure Chemical Industries, Ltd.) 4.0 g/L, pH 5.8), media in 9 stages (0 mg/L, 0.5 mg/L, 1 mg/L, 2 mg/L, 4 mg/L, 5 mg/L, 10 mg/L, 20 mg/L, 30 mg/L) with different Imazamox concentrations were produced. Successively, chaff of rice (Oryza sativa. L Japonica brand; Nipponbare) seeds was removed, the seeds were shaken in 70% ethanol for 1 min, and sterilized by immersing in 2.5% sodium hypochlorite for 20-30 min while allowing for penetration. […]
From the above, it was determined that the effective concentration of Imazamox under the aseptic culture conditions for rice plant body was 0.5 mg/L.

Test [2] has as its system rice callus. The test is described as follows: Effective concentration of Imazamox on rice callus under aseptic culture conditions. The format is cell-based, Oryza sativa. Conditions: 2N6 medium, 28 days; for proliferation state of the callus: 31.5° C. How it is done:
Based on 2N6 solid medium (mentioned earlier), media in 4 stages (0 mg/L, 30 mg/L, 50 mg/L, 70 mg/L) with different Imazamox concentrations were produced. Callus was induced from the scutellum part of rice seed (mentioned earlier), inoculated to 2N6 solid medium added with Imazamox, cultured at 31.5° C. for 28 days in the dark all day, and the proliferation state of the callus was confirmed.
From the above, it was determined that the effective concentration of Imazamox for rice callus was 70 mg/L.

Consider `COCc1cnc(C2=NC(C)(C(C)C)C(=O)N2)c(C(=O)O)c1` (stereo not drawn) [Imazamox], for which the “number of seeds, germination (7 days later)” value came out at 0 in test [1] (Imazamox 0.5 mg/L in 1/2 MS medium, 24 seeds); 0 in test [1] (Imazamox 1 mg/L in 1/2 MS medium, 23 seeds); 0 in test [1] (Imazamox 2 mg/L in 1/2 MS medium, 24 seeds); 0 in test [1] (Imazamox 4 mg/L in 1/2 MS medium, 24 seeds); 0 in test [1] (Imazamox 5 mg/L in 1/2 MS medium, 24 seeds); 0 in test [1] (Imazamox 10 mg/L in 1/2 MS medium, 24 seeds). The “number of seeds, germination (7 days later)” value worked out at 0 in test [1] (Imazamox 20 mg/L in 1/2 MS medium, 24 seeds) and 0 in test [1] (Imazamox 30 mg/L in 1/2 MS medium, 24 seeds). The germination circumstances result in test [1] (Imazamox 0.5 mg/L or more, 25° C., 7 days) was “browning of embryo stem and whitening of coleoptile was confirmed in all seeds”. In addition, the “survival rate (%)” value came out at 0% in test [1] (Imazamox 0.5 mg/L, 7 days); 0% in test [1] (Imazamox 1 mg/L, 7 days); 0% in test [1] (Imazamox 2 mg/L, 7 days); 0% in test [1] (Imazamox 4 mg/L, 7 days); 0% in test [1] (Imazamox 5 mg/L, 7 days); 0% in test [1] (Imazamox 10 mg/L, 7 days). In addition, the “survival rate (%)” value in test [1] (Imazamox 20 mg/L, 7 days) is 0%; in test [1] (Imazamox 30 mg/L, 7 days), 0%. In addition, the “effective concentration of Imazamox for rice plant body” value in test [1] (aseptic culture conditions, 1/2 MS medium, 7 days) turned out to be 0.5 mg/L. Further, in test [2], the “effective concentration of Imazamox for rice callus” value worked out at 70 mg/L. Moreover, the “proliferation state of the callus” value in test [2] (Imazamox 50 mg/L or below) was “mitotic proliferation of callus was observed”; in test [2] (Imazamox 70 mg/L), “mitotic proliferation was inhibited”.
